Assay in all cases: ≥ marks a high value that may be exact or a test limit, other limits are often not marked, values filed in µg/mL are converted to µM
Experiment [1] deals with Escherichia coli ATCC 25922.
Experiment [2] deals with Escherichia coli CIB 84492.
Experiment [3] has as its system Candida albicans CIB 45437.
The test system of experiment [4] is Staphylococcus aureus ATCC 25923.
Experiment [5] has as its system Staphylococcus aureus CIB 85462.
In experiment [6] the test system is Bacillus subtilis ATCC 6633.
Experiment [7] has as its system Candida albicans ATCC 20032.
Experiment [8] has as its system Saccharomyces cerevisiae IFO 1850.
Experiment [9] has as its system Escherichia coli ATCC 10536.
Experiment [10] concerns Candida albicans ATCC 90028.
For experiment [11], the system named is Escherichia coli ATCC 25726.
Experiment [12] has as its system Acinetobacter baumannii NM35.
Experiment [13] concerns Acinetobacter baumannii NM8.
The test system of experiment [14] is Klebsiella pneumoniae ATCC 700603.
For experiment [15], the system named is Staphylococcus epidermidis RP62A/1.
The subject of experiment [16] is Staphylococcus epidermidis RP62A.
Experiment [17] relates to Pseudomonas aeruginosa ATCC 27853.
Experiment [18] deals with Stenotrophomonas maltophilia B32/4.
In experiment [19] the test system is Bacillus anthracis Sterne 34F2.
Experiment [20] deals with Bacillus subtilis var. niger ATCC 9372.
Experiment [21] concerns Escherichia coli K91BK.

Values after ≈ are worked out from the molar mass of the structure shown. Where only a bound is given, the exact number is not on record here.

By MIC is commonly meant the smallest concentration in the dilution series that meets the test's criterion for growth inhibition. Low readings indicate inhibition by little substance, high ones a need for much substance. As for `CC[C@H](C)[C@@H]1NC(=O)[C@H](C)NC(=O)[C@@H](NC(=O)[C@H](Cc2ccccc2)NC(=O)[C@@H](NC(=O)[C@@H](NC(=O)[C@@H]2CCCN2C(=O)[C@H](CC(C)C)NC(=O)[C@@H](NC(=O)[C@H](CC(N)=O)NC(=O)[C@H](C)NC(=O)[C@H](C)NC(=O)[C@@H](NC(=O)[C@H](CCCN=C(N)N)NC(=O)[C@@H](NC(=O)[C@@H](NC(=O)[C@H](C)NC(=O)[C@@H]2CCCN2C(=O)[C@H](CC(C)C)NC(=O)[C@@H](N)Cc2ccccc2)C(C)C)[C@@H](C)CC)C(C)C)C(C)C)[C@@H](C)O)C(C)C)CSSC[C@@H](C(=O)O)NC(=O)[C@H](CCCCN)NC(=O)[C@H](CCCCN)NC(=O)[C@H](CO)NC1=O` [FLPAVIRVAANVLPTVFCAISKKC], the minimum inhibitory concentration (MIC) was 50 µM (≈ 128 µg/mL) in experiment [1]; 25 µM (≈ 64 µg/mL) in [2]; not below 50 µM in experiment [3]; 6.25 µM (≈ 16 µg/mL) in experiment [4]; 12.5 µM (≈ 32 µg/mL) in experiment [5].
For the compound `CC[C@H](C)[C@H](NC(=O)CN)C(=O)NCC(=O)N[C@H](C(=O)N[C@@H](CCCCN)C(=O)N[C@@H](Cc1ccccc1)C(=O)N[C@@H](CC(C)C)C(=O)NCC(=O)NCC(=O)N[C@H](C(=O)N[C@@H](CCCCN)C(=O)N[C@H](C(=O)N[C@@H](C)C(=O)N[C@@H](CC(C)C)C(=O)N[C@@H](CCCCN)C(=O)NCC(=O)N[C@@H](C)C(=O)N[C@@H](CC(C)C)C(=O)N[C@@H](CCCCN)C(=O)N[C@@H](CCC(=O)O)C(=O)N[C@@H](CC(C)C)C(=O)N[C@@H](C)C(=O)N[C@@H](CO)C(=O)N[C@H](C(=O)N[C@@H](Cc1ccc(O)cc1)C(=O)N[C@H](C(=O)N[C@@H](CC(N)=O)C(N)=O)C(C)C)[C@@H](C)O)[C@@H](C)O)C(C)C)[C@@H](C)O` [GIGTKFLGGVKTALKGALKELASTYVN], the MIC came to 27.4 µM (≈ 75 µg/mL) in experiment [6], 27.4 µM (≈ 75 µg/mL) in [7], 3.43 µM (≈ 9.4 µg/mL) in [1] and 1.72 µM (≈ 4.7 µg/mL) in experiment [4].
On to `CC(C)C[C@H](NC(=O)[C@H](CCCN=C(N)N)NC(=O)CNC(=O)CNC(=O)[C@@H](NC(=O)[C@H](CCCCN)NC(=O)[C@@H]1CCCN1C(=O)[C@H](Cc1ccccc1)NC(=O)[C@H](Cc1ccc(O)cc1)NC(=O)[C@H](CCC(N)=O)NC(=O)[C@H](CCCCN)NC(=O)CN)C(C)C)C(=O)N[C@@H](CO)C(=O)NCC(=O)N[C@@H](CCCCN)C(=O)N[C@@H](C)C(=O)N1CCC[C@H]1C(=O)N[C@@H](CC(C)C)C(=O)N[C@@H](C)C(=O)N[C@@H](C)C(=O)N[C@@H](CCCCN)C(=O)N[C@H](C(=O)N[C@@H](Cc1cnc[nH]1)C(=O)N[C@@H](CCCN=C(N)N)C(=O)N[C@@H](CCCN=C(N)N)C(=O)N[C@@H](CC(C)C)C(=O)N[C@@H](CCCCN)C(=O)N1CCC[C@H]1C(N)=O)[C@@H](C)O` [GKQYFPKVGGRLSGKAPLAAKTHRRLKP], for which the minimal inhibitory concentration (MIC) was found to be 3.92 µM (≈ 12 µg/mL) in [6], 3.92 µM (≈ 12 µg/mL) in experiment [8] and 9.14 µM (≈ 28 µg/mL) in experiment [9].
In the case of `CC[C@H](C)[C@H](NC(=O)CNC(=O)[C@H](CCCCN)NC(=O)[C@H](CCCCN)NC(=O)[C@H](CC(C)C)NC(=O)[C@H](CO)NC(=O)CNC(=O)[C@H](CC(C)C)NC(=O)CNC(=O)[C@H](C)NC(=O)[C@H](CCCCN)NC(=O)[C@H](Cc1ccccc1)NC(=O)[C@@H](NC(=O)[C@H](CCCCN)NC(=O)[C@H](CCCCN)NC(=O)[C@H](CC(C)C)NC(=O)CN)[C@@H](C)CC)C(=O)N[C@@H](C)C(=O)N[C@@H](C)C(=O)N[C@@H](Cc1cnc[nH]1)C(=O)N[C@H](C(=O)N[C@@H](C)C(=O)N[C@@H](CO)C(N)=O)C(C)C` [GLKKIFKAGLGSLKKGIAAHVAS], the MIC in [10] was not below 40 µM; in [11] it was 10 µM (≈ 22.9 µg/mL); in [12] it was 20 µM (≈ 45.9 µg/mL); in experiment [4], more than 250 µM; in [13], 10 µM (≈ 22.9 µg/mL).
On to `CC[C@H](C)[C@H](N)C(=O)N[C@@H](CC(C)C)C(=O)NCC(=O)N[C@@H](CCCCN)C(=O)N[C@@H](CC(C)C)C(=O)N[C@@H](CC(C)C)C(=O)N[C@@H](CCCCN)C(=O)N[C@H](C(=O)N[C@@H](C)C(=O)N[C@@H](C)C(=O)NCC(=O)N[C@@H](CC(C)C)C(=O)N[C@@H](CC(C)C)C(=O)N[C@@H](CO)C(=O)N[C@@H](CC(N)=O)C(=O)N[C@@H](CC(C)C)C(N)=O)[C@@H](C)O` [ILGKLLKTAAGLLSNL], for which the MIC in experiment [10] is not below 128 µM; in experiment [14], 64 µM (≈ 104 µg/mL); in experiment [15], 4 µM (≈ 6.5 µg/mL); in experiment [11] it was not below 64 µM; in [16], 4 µM (≈ 6.5 µg/mL); in [4] it was 8 µM (≈ 13 µg/mL). In addition, the MIC in [13] was not below 64 µM; in [17], 64 µM (≈ 104 µg/mL); in experiment [18], not below 64 µM.
Regarding `CC(=O)N[C@@H](CCCN=C(N)N)C(=O)N[C@@H](CCCN=C(N)N)C(=O)N[C@@H](CCCN=C(N)N)C(=O)N[C@@H](C)C(=O)N[C@@H](C)C(=O)N[C@@H](Cc1ccccc1)C(=O)N[C@@H](C)C(=O)N[C@@H](C)C(=O)N[C@@H](Cc1c[nH]c2ccccc12)C(=O)N[C@@H](C)C(=O)N[C@@H](C)C(=O)N[C@@H](Cc1ccccc1)C(=O)N[C@@H](C)C(=O)N[C@@H](C)C(=O)N[C@@H](CCCN=C(N)N)C(=O)N[C@@H](CCCN=C(N)N)C(=O)N[C@@H](CCCN=C(N)N)C(N)=O` [RRRAAFAAWAAFAARRR], the minimum inhibitory concentration (MIC) in [19] was not below 100 µM; in experiment [20], not below 50 µM; in [21], not below 100 µM.

The record behind these values is DBAASP.
